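Cultured in 96-well plates, cells were exposed to test compound for 48 hours across five concentrations. GI50: concentration for 50% inhibition of growth.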 Active and inactive are the calls of the source. No stated cut-off is given here; in the data, active = GI50 up to about 1.1 µM and inactive = higher. Where a SMILES comes first, the peptide text is derived from it. The star is where a group is joined. Boc = CC(C)(C)OC(=O)*
Assays:
Experiment in all cases: growth of human tumour cells (NCI), 48 h
[1] = tested on: NCI-H522
[2] = tested on: SK-MEL-2
[3] = tested on: ACHN
[4] = tested on: PC-3
[5] = tested on: SF-295
[6] = tested on: NCI-H460
[7] = tested on: UO-31
[8] = tested on: Hs-578T
[9] = tested on: T47D
[10] = tested on: NCI/ADR-RES
[11] = tested on: EKVX
[12] = tested on: HCT-116
[13] = tested on: SNB-19
[14] = tested on: HT-29
[15] = tested on: NCI-H226
[16] = tested on: IGROV-1
[17] = tested on: HCT-15
[18] = tested on: OVCAR-4
[19] = tested on: MDA-MB-231

Row | Compound | GI50 [1] | GI50 [2] | GI50 [3] | GI50 [4] | GI50 [5] | GI50 [6] | GI50 [7] | GI50 [8] | GI50 [9] | GI50 [10] | GI50 [11] | GI50 [12] | GI50 [13] | GI50 [14] | GI50 [15] | GI50 [16] | GI50 [17] [µM] | GI50 [18] | GI50 [19]
1 | C[N+](C)(N)Cc1csc(-c2ccc(Cl)cc2)n1 | 62.4 µM (inactive) | > 100 µM (inactive) | > 100 µM (inactive) | > 100 µM (inactive) | 67.1 µM (inactive) | > 100 µM (inactive) | > 100 µM (inactive) | 23.9 µM (inactive) | 80 µM (inactive) | > 100 µM (inactive) | 64.3 µM (inactive) | > 100 µM (inactive) | > 100 µM (inactive) | > 100 µM (inactive) | 48.2 µM (inactive) | > 100 µM (inactive) | > 100 | > 100 µM (inactive) | > 100 µM (inactive)
2 | CC(C)(C)c1ccc2c(c1)OCc1n[nH]c(n1)COc1cc(C(C)(C)C)ccc1OCCOCCO2 | 2.4 µM (inactive) | 1.81 µM (inactive) | 4.39 µM (inactive) | 2.41 µM (inactive) | 3.55 µM (inactive) | 3.13 µM (inactive) | 3.67 µM (inactive) | 2.26 µM (inactive) | 3.48 µM (inactive) | 3.41 µM (inactive) | 4.3 µM (inactive) | 4.31 µM (inactive) | 4.23 µM (inactive) | 3.01 µM (inactive) | 2.71 µM (inactive) | 5.69 µM (inactive) | 4.95 | 0.248 µM (active) | 9.48 µM (inactive)
3 | COC(=O)C(Cc1ccc(OC)cc1O)NC(=O)OC(C)(C)C (stereo unspecified) | 96.6 µM (inactive) | > 100 µM (inactive) | > 100 µM (inactive) | > 100 µM (inactive) | > 100 µM (inactive) | > 100 µM (inactive) | > 100 µM (inactive) | > 100 µM (inactive) | > 100 µM (inactive) | > 100 µM (inactive) | > 100 µM (inactive) | > 100 µM (inactive) | > 100 µM (inactive) | > 100 µM (inactive) | > 100 µM (inactive) | > 100 µM (inactive) | > 100 | > 100 µM (inactive) | > 100 µM (inactive)
4 | COc1ccc(/C=C2\CCCC(CN(C)C)C2=O)cc1 (stereo unspecified) | 1.37 µM (inactive) | 3.36 µM (inactive) | 2.29 µM (inactive) | 5.74 µM (inactive) | 19.1 µM (inactive) | 21.1 µM (inactive) | 3.63 µM (inactive) | 3.02 µM (inactive) | 2.17 µM (inactive) | 2.63 µM (inactive) | 10.2 µM (inactive) | 1.63 µM (inactive) | 7.36 µM (inactive) | 1.75 µM (inactive) | 18.1 µM (inactive) | 2.69 µM (inactive) | 1.24 | 1.76 µM (inactive) | 3.03 µM (inactive)
5 | N#CCc1nc(Cc2ccccc2)n[nH]1 | > 100 µM (inactive) | > 100 µM (inactive) | > 100 µM (inactive) | > 100 µM (inactive) | > 100 µM (inactive) | > 100 µM (inactive) | > 100 µM (inactive) | > 100 µM (inactive) | > 100 µM (inactive) | > 100 µM (inactive) | > 100 µM (inactive) | > 100 µM (inactive) | > 100 µM (inactive) | > 100 µM (inactive) | – | > 100 µM (inactive) | > 100 | > 100 µM (inactive) | > 100 µM (inactive)
6 | CC(NC(=O)C1CCCN1C(=O)CNC(=O)OC(C)(C)C)C(=O)O (stereo not drawn) (Boc-Gly-Pro-Ala-OH; configuration not given here) | > 100 µM (inactive) | > 100 µM (inactive) | > 100 µM (inactive) | > 100 µM (inactive) | > 100 µM (inactive) | > 100 µM (inactive) | > 100 µM (inactive) | > 100 µM (inactive) | > 100 µM (inactive) | > 100 µM (inactive) | > 100 µM (inactive) | – | > 100 µM (inactive) | > 100 µM (inactive) | > 100 µM (inactive) | > 100 µM (inactive) | > 100 | – | > 100 µM (inactive)
7 | CC(=O)OCC1OC(N2C(C)=C(C(C)=O)C(c3ccc(Cl)cc3)C(C#N)=C2S)C(OC(C)=O)C(OC(C)=O)C1OC(C)=O (stereo unspecified) | 32.4 µM (inactive) | 37.6 µM (inactive) | 77.8 µM (inactive) | 36 µM (inactive) | 66.2 µM (inactive) | 45.1 µM (inactive) | 36.8 µM (inactive) | 28.5 µM (inactive) | 24.5 µM (inactive) | 8.71 µM (inactive) | – | 36.7 µM (inactive) | > 100 µM (inactive) | 42.7 µM (inactive) | 44.1 µM (inactive) | 57.5 µM (inactive) | 41.3 | 51.6 µM (inactive) | 87.5 µM (inactive)
8 | CC1OC(Oc2c(-c3cc(O)c(O)c(O)c3)oc3cc(O)cc(O)c3c2=O)C(O)C(O)C1O (stereo unspecified) | > 100 µM (inactive) | > 100 µM (inactive) | > 100 µM (inactive) | > 100 µM (inactive) | > 100 µM (inactive) | – | > 100 µM (inactive) | > 100 µM (inactive) | > 100 µM (inactive) | > 100 µM (inactive) | > 100 µM (inactive) | > 100 µM (inactive) | > 100 µM (inactive) | > 100 µM (inactive) | > 100 µM (inactive) | > 100 µM (inactive) | > 100 | > 100 µM (inactive) | 87.9 µM (inactive)
9 | CCOC(=O)c1nc2ccc(C(F)(F)F)cc2nc1Oc1ccc(F)cc1 | – | > 100 µM (inactive) | > 100 µM (inactive) | > 100 µM (inactive) | > 100 µM (inactive) | > 100 µM (inactive) | > 100 µM (inactive) | > 100 µM (inactive) | > 100 µM (inactive) | > 100 µM (inactive) | > 100 µM (inactive) | > 100 µM (inactive) | > 100 µM (inactive) | > 100 µM (inactive) | > 100 µM (inactive) | > 100 µM (inactive) | > 100 | > 100 µM (inactive) | > 100 µM (inactive)
10 | O=C(/C=C(\Nc1ccccc1O)c1ccccc1)C(=O)NC12CC3CC(CC(C3)C1)C2 | > 10 µM (inactive) | > 10 µM (inactive) | > 10 µM (inactive) | 5.65 µM (inactive) | > 10 µM (inactive) | > 10 µM (inactive) | > 10 µM (inactive) | > 10 µM (inactive) | > 10 µM (inactive) | > 10 µM (inactive) | > 10 µM (inactive) | – | – | 2.41 µM (inactive) | > 10 µM (inactive) | > 10 µM (inactive) | > 10 | > 10 µM (inactive) | > 10 µM (inactive)
11 | O=C(O)/C=C/C(=O)N1Cc2cc3ccccc3nc2C1 | > 100 µM (inactive) | > 100 µM (inactive) | > 100 µM (inactive) | > 100 µM (inactive) | > 100 µM (inactive) | > 100 µM (inactive) | > 100 µM (inactive) | > 100 µM (inactive) | > 100 µM (inactive) | > 100 µM (inactive) | > 100 µM (inactive) | > 100 µM (inactive) | > 100 µM (inactive) | > 100 µM (inactive) | > 100 µM (inactive) | > 100 µM (inactive) | > 100 | – | > 100 µM (inactive)
12 | COc1cc(NP(=O)(Oc2ccccc2)Oc2ccccc2)ccc1Nc1c2ccccc2nc2c1[nH]c1ccccc12 | 1.6 µM (inactive) | 7.24 µM (inactive) | 0.221 µM (active) | 4.41 µM (inactive) | 0.344 µM (active) | 0.0226 µM (active) | 0.617 µM (active) | 17.1 µM (inactive) | 0.867 µM (active) | 1.65 µM (inactive) | 9.71 µM (inactive) | 3.21 µM (inactive) | 0.755 µM (active) | 0.953 µM (active) | – | 0.0923 µM (active) | 1.63 | 3.22 µM (inactive) | 4.68 µM (inactive)
13 | COc1cc(C2S/C(=C/c3ccccc3)C(=O)N2c2cccc([N+](=O)[O-])c2)cc(OC)c1OC (stereo unspecified) | 38.5 µM (inactive) | 15.9 µM (inactive) | > 100 µM (inactive) | > 100 µM (inactive) | 50.1 µM (inactive) | – | 94.6 µM (inactive) | > 100 µM (inactive) | 0.156 µM (active) | 42.2 µM (inactive) | 50 µM (inactive) | 36.2 µM (inactive) | > 100 µM (inactive) | 50.1 µM (inactive) | > 100 µM (inactive) | – | 71.9 | 83.2 µM (inactive) | 51.8 µM (inactive)
14 | CCOC(=O)C(=[N+]=[N-])C(=O)CSC#N | 24.4 µM (inactive) | > 100 µM (inactive) | 22.3 µM (inactive) | > 100 µM (inactive) | > 100 µM (inactive) | – | 31.2 µM (inactive) | > 100 µM (inactive) | > 100 µM (inactive) | 96.4 µM (inactive) | > 100 µM (inactive) | 33 µM (inactive) | 97.5 µM (inactive) | 39.3 µM (inactive) | 40.6 µM (inactive) | > 100 µM (inactive) | 51.4 | 40.6 µM (inactive) | 82.2 µM (inactive)
15 | c1ccc2c3c([nH]c2c1)C1c2[nH]c4ccccc4c2CCN1CC3 | 11.6 µM (inactive) | 26.8 µM (inactive) | 13.8 µM (inactive) | 12.9 µM (inactive) | 16 µM (inactive) | 6.85 µM (inactive) | 5.62 µM (inactive) | 17.3 µM (inactive) | 14.9 µM (inactive) | 2.27 µM (inactive) | 6.12 µM (inactive) | 10.2 µM (inactive) | – | 10.9 µM (inactive) | 14.7 µM (inactive) | 12.7 µM (inactive) | 11 | 4.49 µM (inactive) | 14.7 µM (inactive)

Reference: ChEMBL document CHEMBL1201862, “PubChem BioAssay data set” (2004)
